What was measured:
NAMPT = NAMPT (Homo sapiens, UniProt P43490); experiment: Time-Resolved Fluorescence Resonance Energy Transfer (TR-FRET) Binding Assay of NAMPT with PRPP; details: 200 μM PRPP and 2.5 mM ATP; 2 nM NAMPT, 2 nM probe, equilibrated 16 hours
Method in brief: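 Compounds were equilibrated for 16 hours before TR-FRET readout, with substrates present (200 μM PRPP, 2.5 mM ATP) to permit enzymatic modification. Final mix: 2 nM His-tagged NAMPT, 2 nM probe, 1 nM Tb-anti-His antibody, 2% DMSO.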

[1] = target: NAMPT (human, recombinant, C-terminally His-tagged) (Homo sapiens, UniProt P43490); experiment: Time-Resolved Fluorescence Resonance Energy Transfer (TR-FRET) Binding Assay of NAMPT; details: absence of substrates; 6.8 nM NAMPT, 200 nM probe, equilibrated 3 hours
Method in brief: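 Compounds (typically 11 half-log dilutions, 2% DMSO final) equilibrated 3 h at room temperature with 6.8 nM human C-His NAMPT, 1 nM Tb-anti-His antibody and 200 nM fluorescent competitive probe in pH 7.5 HEPES buffer. IC50 derived by logistic fit of normalized TR-FRET ratio (520/495 nm).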

Chain of NAMPT (human, recombinant, C-terminally His-tagged) (P43490 whole entry): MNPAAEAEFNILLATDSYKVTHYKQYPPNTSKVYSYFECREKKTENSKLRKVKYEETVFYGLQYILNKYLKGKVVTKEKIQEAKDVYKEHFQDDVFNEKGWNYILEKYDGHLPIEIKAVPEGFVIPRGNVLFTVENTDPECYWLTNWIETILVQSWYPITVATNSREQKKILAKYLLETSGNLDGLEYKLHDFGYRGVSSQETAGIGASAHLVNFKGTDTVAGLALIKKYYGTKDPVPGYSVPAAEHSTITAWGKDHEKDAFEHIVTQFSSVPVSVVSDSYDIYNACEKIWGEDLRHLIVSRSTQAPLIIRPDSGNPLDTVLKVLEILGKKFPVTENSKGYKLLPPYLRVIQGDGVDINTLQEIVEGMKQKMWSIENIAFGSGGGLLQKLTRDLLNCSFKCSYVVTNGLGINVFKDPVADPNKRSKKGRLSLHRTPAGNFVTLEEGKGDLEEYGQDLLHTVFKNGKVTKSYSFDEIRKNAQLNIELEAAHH
Chain of NAMPT (P43490 whole entry): as above

Structure (SMILES)	IC50 (NAMPT) [nM]	IC50 [1] [nM]
COCCN(C(=O)CCc1ccc(F)cc1)c1ncc(C(=O)NCCCn2ccnc2)s1 [Example 182, 2-{[3-(4-fluorophenyl)propanoyl](2-methoxyethyl)amino}-N-[3-(1H-imidazol-1-yl)propyl]-1,3-thiazole-5-carboxamide]	0.264	2590
CC(C)CC(=O)N(CCc1ccc(C#N)cc1)c1ncc(C(=O)NCCCn2ccnc2)s1 [Example 48, 2-{[2-(4-cyanophenyl)ethyl](3-methylbutanoyl)amino}-N-[3-(1H-imidazol-1-yl)propyl]-1,3-thiazole-5-carboxamide]	0.701	807
CC(C)OCCNC(=O)N(Cc1ccc(C#N)cc1)c1ncc(C(=O)NCCCn2ccnc2)s1 [Example 123, 2-[(4-cyanobenzyl){[2-(propan-2-yloxy)ethyl]carbamoyl}amino]-N-[3-(1H-imidazol-1-yl)propyl]-1,3-thiazole-5-carboxamide]	0.631	3820
CCN(CC)CCCN(C(=O)CCOC)c1ncc(C(=O)NCCCn2ccnc2)s1 [Example 190, 2-{[3-(diethylamino)propyl](3-methoxypropanoyl)amino}-N-[3-(1H-imidazol-1-yl)propyl]-1,3-thiazole-5-carboxamide]	0.606	2610
CC(=O)NCCNC(=O)N(Cc1ccc(C#N)cc1)c1ncc(C(=O)NCCCn2ccnc2)s1 [Example 145, 2-[{[2-(acetylamino)ethyl]carbamoyl}(4-cyanobenzyl)amino]-N-[3-(1H-imidazol-1-yl)propyl]-1,3-thiazole-5-carboxamide]	107	> 10000
CCN(CC)CCN(C(=O)CCOC)c1ncc(C(=O)NCCCn2ccnc2)s1 [Example 191, 2-{[2-(diethylamino)ethyl](3-methoxypropanoyl)amino}-N-[3-(1H-imidazol-1-yl)propyl]-1,3-thiazole-5-carboxamide]	0.265	> 10000
O=C(NCCCn1ccnc1)c1cnc(N(Cc2ccc(F)cc2)C(=O)N2CC(O)C2)s1 [Example 66, 2-{(4-fluorobenzyl)[(3-hydroxyazetidin-1-yl)carbonyl]amino}-N-[3-(1H-imidazol-1-yl)propyl]-1,3-thiazole-5-carboxamide]	2.42	> 10000
COCCC(=O)N(Cc1cnccc1C)c1ncc(C(=O)NCCCn2ccnc2)s1 [Example 97, N-[3-(1H-imidazol-1-yl)propyl]-2-{(3-methoxypropanoyl)[(4-methylpyridin-3-yl)methyl]amino}-1,3-thiazole-5-carboxamide]	5.89	> 10000
CC(C)CCN(C(=O)[C@H](C)Oc1ccccc1)c1ncc(C(=O)NCCCn2ccnc2)s1 [Example 134, N-[3-(1H-imidazol-1-yl)propyl]-2-{(3-methylbutyl)[(2S)-2-phenoxypropanoyl]amino}-1,3-thiazole-5-carboxamide]	0.617	200
COCCC(=O)N(Cc1cocn1)c1ncc(C(=O)NCCCn2ccnc2)s1 [Example 95, N-[3-(1H-imidazol-1-yl)propyl]-2-[(3-methoxypropanoyl)(1,3-oxazol-4-ylmethyl)amino]-1,3-thiazole-5-carboxamide]	15.1	3890
CCN1CC(CN(C(=O)CCOC)c2ncc(C(=O)NCCCn3ccnc3)s2)CC1=O (stereo not shown) [Example 193, 2-{[(1-ethyl-5-oxopyrrolidin-3-yl)methyl](3-methoxypropanoyl)amino}-N-[3-(1H-imidazol-1-yl)propyl]-1,3-thiazole-5-carboxamide]	0.755	6060
O=C(NCCCn1ccnc1)c1cnc(N(Cc2ccc(F)cc2)C(=O)CN2CCC(O)CC2)s1 [Example 29, 2-{(4-fluorobenzyl)[(4-hydroxypiperidin-1-yl)acetyl]amino}-N-[3-(1H-imidazol-1-yl)propyl]-1,3-thiazole-5-carboxamide]	2.16	> 10000
O=C(NCCCn1ccnc1)c1cnc(N(Cc2ccc(F)cc2)Cc2ccccc2Cl)s1 [Example 16, 2-[(2-chlorobenzyl)(4-fluorobenzyl)amino]-N-[3-(1H-imidazol-1-yl)propyl]-1,3-thiazole-5-carboxamide]	217	4720
CC(C)CC(=O)N(CCc1ccc(F)cc1)c1ncc(C(=O)NCCCn2ccnc2)s1 [Example 45, 2-{[2-(4-fluorophenyl)ethyl](3-methylbutanoyl)amino}-N-[3-(1H-imidazol-1-yl)propyl]-1,3-thiazole-5-carboxamide]	0.206	611
COCCC(=O)N(Cc1cccc(C)c1)c1ncc(C(=O)NCCCn2ccnc2)s1 [Example 120, N-[3-(1H-imidazol-1-yl)propyl]-2-[(3-methoxypropanoyl)(3-methylbenzyl)amino]-1,3-thiazole-5-carboxamide]	2.29	3780
O=C(NCCCn1ccnc1)c1cnc(N(Cc2ccc(F)cc2)C(=O)NCC2COCCO2)s1 (stereo not shown) [Example 88, 2-{[(1,4-dioxan-2-ylmethyl)carbamoyl](4-fluorobenzyl)amino}-N-[3-(1H-imidazol-1-yl)propyl]-1,3-thiazole-5-carboxamide]	0.602	> 10000
COCCC(=O)N(Cc1ccc(Cl)cn1)c1ncc(C(=O)NCCCn2ccnc2)s1 [Example 96, 2-{[(5-chloropyridin-2-yl)methyl](3-methoxypropanoyl)amino}-N-[3-(1H-imidazol-1-yl)propyl]-1,3-thiazole-5-carboxamide]	3.35	4190
CC(C)CCN(C(=O)C(C)Oc1ccccc1)c1ncc(C(=O)NCCCn2ccnc2)s1 (stereo not shown) [Example 77, N-[3-(1H-imidazol-1-yl)propyl]-2-[(3-methylbutyl)(2-phenoxypropanoyl)amino]-1,3-thiazole-5-carboxamide]	0.774	95.6
CC(C)CCN(C(=O)CC1CCOC1)c1ncc(C(=O)NCCCn2ccnc2)s1 (stereo not shown) [Example 174, N-[3-(1H-imidazol-1-yl)propyl]-2-[(3-methylbutyl)(tetrahydrofuran-3-ylacetyl)amino]-1,3-thiazole-5-carboxamide]	0.714	334
COC1CCN(C(=O)N(Cc2ccc(F)cc2)c2ncc(C(=O)NCCCn3ccnc3)s2)C1 (stereo not shown) [Example 68, 2-{(4-fluorobenzyl)[(3-methoxypyrrolidin-1-yl)carbonyl]amino}-N-[3-(1H-imidazol-1-yl)propyl]-1,3-thiazole-5-carboxamide]	4.68	> 10000
CC(C)CCN(C(=O)CCc1ccccc1)c1ncc(C(=O)NCCCn2ccnc2)s1 [Example 137, N-[3-(1H-imidazol-1-yl)propyl]-2-[(3-methylbutyl)(3-phenylpropanoyl)amino]-1,3-thiazole-5-carboxamide]	0.236	40.2
COCCC(=O)N(Cc1ccc(C)cn1)c1ncc(C(=O)NCCCn2ccnc2)s1 [Example 117, N-[3-(1H-imidazol-1-yl)propyl]-2-{(3-methoxypropanoyl)[(5-methylpyridin-2-yl)methyl]amino}-1,3-thiazole-5-carboxamide]	3.02	1250
COCCC(=O)N(Cc1ccc(OC)nc1)c1ncc(C(=O)NCCCn2ccnc2)s1 [Example 98, N-[3-(1H-imidazol-1-yl)propyl]-2-{(3-methoxypropanoyl)[(6-methoxypyridin-3-yl)methyl]amino}-1,3-thiazole-5-carboxamide]	1.47	1500
